The text below walks through data of patent publication US20070275977A1, “N-OXIDES OF PYRIDYLMETHYL -PIPERAZINE AND -PIPERIDINE DERIVATIVES” (priority 2006, published 2007).

SMILES strings stand for the structures. pKi: −log10 of the molar value. “Also recorded” adds a separate entry of the source. Where two headings read alike, the source gives them in different places. Where only a bound is given, the exact number is not on record here.

The nature of data set [1]: Plasma concentrations in mice after i.v. or p.o. administration, blood analyzed by LC-MS. Format: in vivo. The settings on record: piperazine-N-oxide administered. The method, then:
(§1) The LC-MS system consists of 2 Perkin elmer series 200 micro pumps. The pumps were connected to each other by a 50 pI tee mixer, and connected to a Gilson 215 auto sampler. The method was as follows:
(§2) The auto sampler was connected to a Waters Atlantis C18 30*4.6 mm column with 3 μm particles. The column was thermo stated in a Perkin Elmer series 200 column oven at 40° C. The column was connected to a Perkin Elmer series 200 UV meter with a 2.7 μl flowcel. The wavelength was set to 254 nm. The UV meter was connected to a Sciex API 150EX mass spectrometer. The mass spectrometer had the following parameters: Scanrange:150-900 a.m.u., polarity: positive; scan mode: profile; resolution Q1: UNIT; step size: 0.10 a.m.u.; time per scan: 0.500 sec; NEB: 10; CUR: 10; IS: 5200; TEM: 325; DF: 30; FP: 225 and EP: 10. The light scattering detector was connected to the Sciex API 150. The light scattering detector was a Sedere Sedex 55 operating at 50° C. and 3 bar N2. The complete system was controlled by a G3 powermac.
For oral (p.o.) administration: to the desired quantity (0.5-5 mg) of the solid test compound in a glass tube, some glass beads were added and the solid was milled by vortexing for 2 minutes. After addition of 1 ml of a solution of 1% methylcellulose in water and 2% (v/v) of Poloxamer 188 (Lutrol F68), the compound was suspended by vortexing for 10 minutes. The pH was adjusted to 7. […]

For the next data set, the system named is Lower lip retraction. Nature of the data set: Lower lip retraction. Format: in vivo. The settings on record: po, read-out: Lower Lip Retraction: ED50. The method, then: (§3) For oral (p.o.) administration: to the desired quantity (0.5-5 mg) of the solid test compound in a glass tube, some glass beads were added and the solid was milled by vortexing for 2 minutes. After addition of 1 ml of a solution of 1% methylcellulose in water and 2% (v/v) of Poloxamer 188 (Lutrol F68), the compound was suspended by vortexing for 10 minutes. The pH was adjusted to 7. Remaining particles in the suspension were further suspended by using an ultrasonic bath.
(§4) Lower lip retraction, an in vivo animal model for serotonin 5-HT1A receptor agonistic activity, was measured according to the method described by Berendsen (1989); Apomorphine-induced climbing behaviour in mice, an in vivo animal model for dopamine-D2 receptor antagonistic activity, was determined according to the method described by Costall (1978).

For data set [2], the system named is neurotransmitter receptors. Nature of the data set: Pharmacological profile in vitro (overall statement). The method, then: (§5) ln vitro affinity for neurotransmitter receptors: The binding data collected below were either obtained by CE REP (128, rue Danton, 92500 Rueil-Malmaison, France) or at Solvay Pharmaceuticals B.V. (C. J. van Houtenlaan 36, 1381 CP Weesp, The Netherlands), using well documented standard procedures. The affinities for dopamine-D2 and 5-HT1A receptors for instance, were measured as described by Creese (1997) and Gozlan (1983) respectively.
In vitro (ant)agonistic activity at human D2 receptors and 5-HT1A receptors was measured according to the methods described by Solomon (1974) and Weiss (1985) respectively, on the formation of adenylate cyclase in CHO cell-lines expressing these cloned receptors.

Data set [3] can be described thus: Brain concentrations in mice after i.v. or p.o. administration, LC-MS. It counts as in vivo. The conditions noted are these: for concentration at 0.17 h / concentration at 0.5 h / concentration at 1 h / concentration at 3 h / concentration at 7 h / concentration at 24 h: mouse, brain, read-out: piperazine-N-ox analyzed in brain. The method, then:
as §1, §2, §3
For intravenous (i.v.) administration: compounds were dissolved in physiological saline (0.9% NaCl) and the pH was adjusted to 7.
Data were averaged (n=3), and collected in table 4.

A short description of data set [4]: Partition coefficient, experimental (Log P). Format: physicochemical. The conditions noted are these: at pH 7.0.
The target of another data set is Dopamine-D2 (Homo sapiens, UniProt P14416). Kind of data set: In vitro receptor affinity, Dopamine-D2. The conditions noted are these: radioligand [3H]-spiperone, read-out: K1 (in vitro receptor affinity). Format: binding. The method, then: as §5
A short description of data set [5]: Pharmacological profile in vivo (overall statement). The method, then: as §4
Data set [6] relates to Apomorphine-induced climbing behaviour in mice. Nature of the data set: Antagonism of apomorphine-induced climbing behaviour in mice. Format: in vivo. The settings on record: Mus musculus, po, read-out: Antagon. apomorphine ind. climbing: ED50. The method, then:
as §3, §4

The target in a further data set is T1, Serotonin-5-HT1A (Homo sapiens, UniProt P08908).
T1 sequence (P08908 1-422): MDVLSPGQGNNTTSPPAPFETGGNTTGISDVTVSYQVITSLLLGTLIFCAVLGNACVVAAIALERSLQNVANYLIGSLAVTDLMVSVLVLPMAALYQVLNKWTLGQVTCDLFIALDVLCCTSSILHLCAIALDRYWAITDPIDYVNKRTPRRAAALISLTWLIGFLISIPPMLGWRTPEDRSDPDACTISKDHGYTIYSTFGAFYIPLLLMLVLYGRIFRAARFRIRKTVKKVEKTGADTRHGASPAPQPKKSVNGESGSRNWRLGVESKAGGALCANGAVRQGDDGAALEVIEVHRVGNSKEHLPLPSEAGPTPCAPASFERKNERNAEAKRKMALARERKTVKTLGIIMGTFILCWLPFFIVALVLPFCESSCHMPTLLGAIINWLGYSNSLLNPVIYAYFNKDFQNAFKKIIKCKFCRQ
Kind of data set: In vitro receptor affinity, Serotonin-5-HT1A. Format: binding. The settings on record: radioligand [3H]-8-OH-DPAT, read-out: K1 (in vitro receptor affinity). The method, then: as §5

Setting [7] is: iv, 0.5 mg/kg i.v. of administered compound.
The mark [8] stands for this setting: po, 5 mg/kg p.o. of administered compound.

Dopamine-D2, sequence (P14416 whole entry): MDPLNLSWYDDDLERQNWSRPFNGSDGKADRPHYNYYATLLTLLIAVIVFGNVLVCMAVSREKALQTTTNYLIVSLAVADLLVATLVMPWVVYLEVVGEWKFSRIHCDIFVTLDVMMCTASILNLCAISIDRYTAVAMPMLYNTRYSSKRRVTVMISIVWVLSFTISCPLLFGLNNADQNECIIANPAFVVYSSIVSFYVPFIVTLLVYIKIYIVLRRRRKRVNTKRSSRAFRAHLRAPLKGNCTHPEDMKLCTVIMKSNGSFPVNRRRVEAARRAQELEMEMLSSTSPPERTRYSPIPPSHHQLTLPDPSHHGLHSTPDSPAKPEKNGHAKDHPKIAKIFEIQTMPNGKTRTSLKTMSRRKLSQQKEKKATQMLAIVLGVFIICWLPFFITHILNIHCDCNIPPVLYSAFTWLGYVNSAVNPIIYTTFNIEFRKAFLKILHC

For the compound `[O-][N+]1(Cc2cncc(-c3ccc(F)cc3)c2)CCN(c2cccc3c2OCCO3)CC1` [piperazine N-oxide], the melting point lay in the range of 181 to 182 °C. Further, in data set [1], the “time at which plasma concentrations of piperazine-N-oxide and parent molecule cross” value was “within half an hour”. Besides, in the data set with Lower lip retraction, the ED50 was found to be 10 mg/kg. Moreover, the “pharmacological profile/activity in vitro relative to parent SLV313” value in data set [2] is “virtually inactive; also recorded: nearly inactive”. Also, the “detection of administered compound in brain” value in data set [3] (i.v. or p.o.) is “hardly detected in brain”. Further, in [3] (setting [7]), the concentration at 0.17 h worked out at 3.1 ng/g, the concentration at 0.5 h stood at 4.4 ng/g, the concentration at 1 h was determined as 0 ng/g and the concentration at 3 h was found to be 0 ng/g. In [3] (setting [7]), the concentration at 7 h was 0 ng/g and the concentration at 24 h amounted to 0 ng/g. In [3] (setting [8]), the concentration at 0.17 h is 2.9 ng/g, the concentration at 0.5 h amounted to 2.6 ng/g, the concentration at 1 h stood at 0 ng/g and the concentration at 3 h is 0 ng/g. In [3] (setting [8]), the concentration at 7 h turned out to be 0 ng/g and the concentration at 24 h worked out at 0 ng/g. In addition, the logP in data set [4] is 1.7. Moreover, the pKi at Dopamine-D2 is less than 6.00. Further, in data set [5] (in vivo), the “pharmacological profile/potency in vivo relative to SLV313” value is reported as “equipotent”. The ED50 in [6] is 0.3 mg/kg. The pKi at Serotonin-5-HT1A is 7.60.

Take `[O-][n+]1cc(C[N+]2([O-])CCN(c3cccc4c3OCCO4)CC2)cc(-c2ccc(F)cc2)c1` [SLV313-bis-N-oxide, 4-(2,3-dihydro-benzo[1,4]dioxin-5-yl-1-[5-4-fluorophenyl]-1-oxy-pyridin-3-ylmethyl)piperazine-1-oxide]: in data set [5] (stated by analogy), the “potency relative to corresponding parent molecule, the pyridine N-oxide” value is reported as “equipotent”.

As usually defined, the ED50 is the dose at which the effect has come halfway, by size or by number of responders. A word on the melting point: it is the temperature of the solid-liquid transition. As a reminder, the logP is the decadic logarithm of the partition coefficient of the neutral form, usually between octanol and water.
